# Measurements from article PMC8501799, “Constitutive signal bias mediated by the human GHRHR splice variant 1” (Proceedings of the National Academy of Sciences of the …, 2021).
# System: GHRHR mutants (F82, F85, D274, E223, N296, L337, F338 to alanine)
# Assay: β-arrestin 1 recruitment (BRET), GHRHR single-point alanine mutants
# Format: cell-based, human
# Conditions: single residue to alanine; 250 μM GHRH; HEK293T; Fig. 5G
# Experimental: HEK293T cells were seeded at a density of 30,000 cells per well into 96-well culture plates pretreated with poly-D-lysine hydrobromide. After incubation for 24 h to reach 70% to 80% confluence, the cells were transiently transfected with HA-Flag-GHRHR-Rluc8 or HA-Flag-SV1-Rluc8 and β-arrestin 1/2-Venus at a 1:9 mass ratio using lipofectamine 3000 reagent (Invitrogen) and cultured for another 24 h. Thereafter, cells were washed once and incubated for 30 min at 37 °C with HBSS buffer (pH 7.4) supplemented with 0.1% BSA and 10 mM HEPES. Five micromolars of coelenterazine h (YEASEN Biotechnology) was then added and incubated for 5 min in the dark. The bioluminescence resonance energy transfer (BRET) signals were detected with an Envision plate reader by calculating the ratio of emission at 535 nm over emission at 470 nm.
smiles,measurement,value
"CC[C@H](C)[C@H](NC(=O)[C@H](C)NC(=O)[C@H](CC(=O)O)NC(=O)[C@H](C)NC(=O)[C@@H](N)Cc1ccc(O)cc1)C(=O)N[C@@H](Cc1ccccc1)C(=O)N[C@H](C(=O)N[C@@H](CC(N)=O)C(=O)N[C@@H](CO)C(=O)N[C@@H](Cc1ccc(O)cc1)C(=O)N[C@@H](CCCNC(=N)N)C(=O)N[C@@H](CCCCN)C(=O)N[C@H](C(=O)N[C@@H](CC(C)C)C(=O)NCC(=O)N[C@@H](CCC(N)=O)C(=O)N[C@@H](CC(C)C)C(=O)N[C@@H](CO)C(=O)N[C@@H](C)C(=O)N[C@@H](CCCNC(=N)N)C(=O)N[C@@H](CCCCN)C(=O)N[C@@H](CC(C)C)C(=O)N[C@@H](CC(C)C)C(=O)N[C@@H](CCC(N)=O)C(=O)N[C@@H](CC(=O)O)C(=O)N[C@H](C(=O)N[C@@H](CCSC)C(=O)N[C@@H](CO)C(=O)N[C@@H](CCCNC(=N)N)C(=O)N[C@@H](CCC(N)=O)C(=O)N[C@@H](CCC(N)=O)C(=O)NCC(=O)N[C@@H](CCC(=O)O)C(=O)N[C@@H](CO)C(=O)N[C@@H](CC(N)=O)C(=O)N[C@@H](CCC(N)=O)C(=O)N[C@@H](CCC(=O)O)C(=O)N[C@@H](CCCNC(=N)N)C(=O)NCC(=O)N[C@@H](C)C(=O)N[C@@H](CCCNC(=N)N)C(=O)N[C@@H](C)C(=O)N[C@@H](CCCNC(=N)N)C(=O)N[C@@H](CC(C)C)C(N)=O)[C@@H](C)CC)C(C)C)[C@@H](C)O [GHRH, growth hormone–releasing hormone]",β-arrestin 1 recruitment,significantly increased the capability of GHRHR to recruit β-arrestin 1
